From patent publication US9861600B2, “Methods and compositions for treating and identifying compounds to treat age-related macular degeneration treatment” (Arizona Board of Regents on behalf of the University of …, priority 2008, dated 2018)
Several values for one entry are separate records, joined by “and”; a condition that tells them apart may be missing. Identical values can stand only once. Like-named read-outs stand apart in the source and are kept apart here.

Columns and labels:
[1] = system: PEDF secretion by RPE; assay: PEDF secretion by pigmented RPE cells (ELISA of conditioned medium); format: cell-based
Experimental: Mutations in OA1 cause defects in the development of the neurosensory retina. […] After treatment, the cells were returned to standard medium without exogenous L-DOPA for three days. Control cells were not treated with L-DOPA, but the medium was changed at the same time the experimental cells were returned to normal medium. Conditioned medium was collected after three days and PEDF was measured.
In these experiments, pigmented RPE cells were either maintained in DMEM, or DMEM containing 200 μM PTU for three days, then PEDF secretion was measured. […] The data are presented as percent of control for this experiment because the cultures used varied in both pigmentation and PEDF expression before the experiment began.

[2] = system: retinal ganglion cells and photoreceptors; assay: L-DOPA supplementation in drinking water of tyrosinase deficient pregnant mice and pups (E7 to P14); format: in vivo; settings: 1.0 mg/ml in drinking water, E7 to P14, tyrosinase deficient mice
[3] = target: T1, OA1 (Homo sapiens, UniProt P51810); settings: 1.0 μM
[4] = target: T1, OA1; settings: untransfected cells
[5] = target: T1, OA1; assay: Radiolabeled ligand binding of [3H]-L-DOPA to CHO cells transfected to express OA1 (saturation); design: expressed in transfected cells; host or cells: CHO cells (ATCC)
[6] = target: T1, OA1; assay: Measurement of [Ca2+]i (Fura-2 ratiometric imaging) in CHO cells transfected to express OA1; format: cell-based; design: expressed in transfected cells; host or cells: CHO cells (ATCC)
[7] = target: T1, OA1; assay: Competitive binding against 5 μM [H3] L-DOPA in OA1 transfected CHO cells; design: expressed in transfected cells; host or cells: CHO cells (ATCC)
[8] = target: T1, OA1; assay: Cell surface biotinylation / western blot of OA1 in cultured cells at lowered tyrosine; format: cell-based; design: expressed in transfected cells; host or cells: CHO cells (ATCC)
Experimental: Endosomal localization of GPCRs occurs normally after exposure to a ligand. Therefore, it was investigated whether a ligand for the receptor was present in the standard incubation medium that could drive internalization of OA1. Since the standard culture medium contains 500 μM tyrosine, and tyrosine is the starting material for pigment synthesis, the effect of tyrosine on receptor distribution was evaluated. To test whether tyrosine affected OA1 distribution in cultured cells DMEM was formulated without tyrosine, and dialyzed fetal bovine serum was used. In the presence of tyrosine-free medium, OA1 was detected on the plasma membrane of cultured RPE cells both in the absence (not shown), and in medium containing low concentrations of tyrosine (1 μM, FIG. 1 B). […] Similarly, OA1-GFP expressed in COS illustrated a cell surface expression that was tyrosine sensitive (FIG. 1 C). Quantification of six such experiments indicated significant variability in the amount of OA1 found at the cell surface using transient transfections. […]
Not only was the distribution of OA1 in transfected cells sensitive to tyrosine levels in the medium, total OA1-GFP expression was increased 5-fold in cells maintained in 1 μM tyrosine. To verify that this difference related to OA1 expression rather than cell number, actin expression was evaluated from the paired samples. […]

T1 sequence (P51810 whole entry): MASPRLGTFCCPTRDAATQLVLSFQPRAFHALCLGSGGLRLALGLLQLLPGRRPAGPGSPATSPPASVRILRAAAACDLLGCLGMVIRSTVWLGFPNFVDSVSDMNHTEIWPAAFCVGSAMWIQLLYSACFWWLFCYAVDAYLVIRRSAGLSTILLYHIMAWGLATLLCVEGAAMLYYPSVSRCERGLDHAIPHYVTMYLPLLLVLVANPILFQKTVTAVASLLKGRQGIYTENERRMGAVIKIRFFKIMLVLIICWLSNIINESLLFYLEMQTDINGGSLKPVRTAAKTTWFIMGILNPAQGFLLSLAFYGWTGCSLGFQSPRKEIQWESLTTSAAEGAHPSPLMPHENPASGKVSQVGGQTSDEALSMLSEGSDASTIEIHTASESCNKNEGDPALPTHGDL

N[C@@H](Cc1ccc(O)c(O)c1)C(=O)O [L-DOPA, 2-amino-3-(3,4-dihydroxyphenyl)propanoic acid]
PEDF secretion ([1]; 1 μM for one hour, medium collected after three days, vs paired control pigmented RPE): significant increase | PEDF secretion ([1]; 1.0 μM in continued presence of PTU, measured after 72 hours): increasing PEDF secretion | photoreceptor nuclear area (measure of photoreceptor numbers) [2]: increased the photoreceptor nuclear area | retinal ganglion cell numbers [2]: increases retinal ganglion cell numbers | change in [Ca2+]i ([3]; RPE cells transfected to express OA1): increase | change in [Ca2+]i ([3]; RPE expressing endogenous OA1): increase | β-arrestin distribution response [4]: no response | Kd ([5]; Kd of L-DOPA binding to OA1, OA1 transfected CHO cells, [3H]-L-DOPA): 9.34 µM and 9.35 µM | specific binding of L-DOPA ([5]; untransfected CHO cells): No specific binding | pertussis toxin sensitivity of the [Ca2+]i increase ([6]; in presence of pertussis toxin, CHO and RPE): not pertussis toxin sensitive

NC(=S)Nc1ccccc1 [PTU, phenylthiourea]
PEDF secretion ([1]; 200 μM for three days, pigmented RPE): significant decrease

N[C@@H](Cc1ccc(O)cc1)C(=O)O [tyrosine]
Ki [7]: 52.9 µM | competition with L-DOPA for OA1 binding ([7]; competitor at 1 mM): competed with L-DOPA | effect on [Ca2+]i ([6]; concentrations up to 1 mM, OA1 transfected CHO cells): no positive effect | OA1 in the bound (cell surface) fraction ([8]; OA1-GFP transfected COS cells maintained in 1 μM tyrosine): 5-40% | increase of total OA1-GFP expression ([8]; transfected cells in 1 μM tyrosine vs normal DMEM (500 μM)): 5 fold

pertussis toxin
basal level of [Ca2+]i ([6]; all cells studied (transfected CHO and RPE, RPE with endogenous OA1)): lowered the basal level
